The test system of assay [1] is JEG-3 cells. The note with it: JEG-3 cells (choriocarcinoma cell line); Biol. Reprod. (2007) 76: 203-10; cited from earlier work.
The test system of assay [2] is JEG-3 cells. The assay is described as follows: [3H]-thymidine incorporation in JEG-3 cells (JEG-3 protocol). It counts as cell-based. The protocol: In JEG-3 cells (choriocarcinoma cell line) leptin is able to stimulate proliferation up to 3 fold (Biol. Reprod. (2007) 76: 203-10). […] The radioactivity incorporated by the cells is an index of their proliferative activity and is measured in counts per minute (CPM) with a liquid scintillation beta counter.
This finding can be applied to test whether a compound is able to either reproduce the effect of leptin on cell proliferation (leptin receptor agonist mimetic) (i.e., a given compound will cause an increase in incorporated [^3H]-Thymidine by the cells) or to inhibit the effect of leptin (antagonistic effect) by preventing the leptin-mediated increase in [^3H]-thymidine incorporation.
This approach has the advantage of using a non-recombinant system and has reasonable reproducibility and robustness.
A general note: Dividing cells build labelled thymidine or BrdU into new DNA.

For “Leptin: hormone synthesized in fat cells that is believed to act in the hypothalamus to reduce food intake and body weight”, in the assay with JEG-3 cells [1], the stimulation of proliferation entry is reported as “up to 3 fold”. Further, the “concentration of maximal effect on [3H]-thymidine incorporation” value with JEG-3 cells [2] (FIG. 4) is recorded as 100 nM. Besides, the EC50 with JEG-3 cells [2] (FIG. 4, read-out: EC50, increase in [3H]-thymidine incorporation) was found to be 2.1 nM.

The values above are taken from US20090203695A1, “Compounds IV” (Biovitrum AB, priority 2007, published 2009).
